Laboratory results reported in ChEMBL document CHEMBL1129749, “Nudicauline and elatine as potent norditerpenoid ligands at rat neuronal alpha-bungarotoxin binding sites: importance of the 2-(methylsuccinimido)benzoyl moiety for neuronal nicotinic acetylcholine receptor binding” (J Med Chem, 1996).

Target: Neuronal acetylcholine receptor subunit alpha-7 (Rattus norvegicus, UniProt Q05941)
Assay: Binding affinity of Norditerpenoid Alkaloids at rat neuronal alpha7-type nicotinic acetylcholine receptor

Chain of Neuronal acetylcholine receptor subunit alpha-7 (Q05941 whole entry): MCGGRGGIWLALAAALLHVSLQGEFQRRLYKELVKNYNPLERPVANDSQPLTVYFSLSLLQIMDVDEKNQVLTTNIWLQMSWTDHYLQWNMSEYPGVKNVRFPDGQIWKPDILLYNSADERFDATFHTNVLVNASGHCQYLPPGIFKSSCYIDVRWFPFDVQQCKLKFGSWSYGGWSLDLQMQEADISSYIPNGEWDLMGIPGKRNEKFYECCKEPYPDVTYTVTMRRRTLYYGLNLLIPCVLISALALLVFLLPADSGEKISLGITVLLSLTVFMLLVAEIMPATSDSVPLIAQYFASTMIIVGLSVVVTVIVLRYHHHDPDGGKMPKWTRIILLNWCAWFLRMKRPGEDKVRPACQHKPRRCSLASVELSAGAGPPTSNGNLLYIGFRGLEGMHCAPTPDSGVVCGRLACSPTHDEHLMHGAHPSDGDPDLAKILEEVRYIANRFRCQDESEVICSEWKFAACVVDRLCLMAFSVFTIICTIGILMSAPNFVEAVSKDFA

Row | Structure (SMILES) | IC50 [µM]
1 | CCN1C[C@]2(COC)CC[C@H](OC)[C@]34C5C[C@@H]6[C@@H](OC)C[C@@]7(OCO[C@@]7(C13)[C@@H](O)C24)C5[C@H]6OC (some centres undefined) [DELCORINE] | 53
2 | CCN1C[C@]2(OC(=O)c3ccccc3NC(C)=O)CC[C@H](OC)[C@@]34[C@@H]2C[C@@H]([C@@H]13)[C@@]1(O)C[C@H](OC)[C@H]2C[C@@H]4[C@]1(O)[C@H]2OC | 96
3 | CCN1C[C@]2(COC(=O)c3ccccc3N3C(=O)C[C@H](C)C3=O)CC[C@H](OC)[C@@]34C1[C@@]1(OCO[C@@]15C[C@H](OC)[C@H]1C[C@@H]3[C@@H]5[C@H]1OC)[C@@H](OC)[C@H]24 [ELATINE] | 0.0061
4 | CCN1C[C@]2(COC)CC[C@H](O)[C@@]34C5C[C@@H]6[C@@H](OC)C[C@](O)(C(CC23)C14)C5[C@H]6OC(C)=O (some centres undefined) [CONDELPHINE] | 1.6
5 | CCN1C[C@]2(C)CC[C@H](OC)[C@@]34C1[C@]1(OCO[C@@]15C[C@H](OC)[C@H]1C[C@]3(O)[C@@H]5[C@H]1OC)[C@@H](OC(C)=O)[C@H]24 [DELTALINE] | 110
6 | CCN1C[C@]2(CO)CC[C@H](OC)[C@@]34[C@@H]5C[C@H]6[C@H](OC)[C@@H]5[C@](O)(C[C@@H]6OC)[C@](O)([C@@H](OC)[C@H]23)[C@@H]14 [LYCOCTONINE] | 10
7 | CCN1C[C@]2(OC(=O)c3ccccc3N)CC[C@H](OC)[C@]34C1[C@@H](CC23)[C@@]1(O)C[C@H](OC)[C@H]2CC4[C@]1(O)[C@H]2OC (some centres undefined) | 6.8
8 | CCN1C[C@]2(COC(=O)c3ccccc3N3C(=O)C[C@H](C)C3=O)CC[C@H](OC)[C@]34C5C[C@@H]6[C@@H](OC)C[C@@](O)(C5[C@H]6OC(C)=O)[C@](O)(C13)[C@@H](OC)C24 (some centres undefined) [NUDICAULINE] | 0.0017
9 | CCN1C[C@]2(COC)CC[C@H](O)[C@]34C1[C@@](O)([C@@H](OC)[C@H]23)[C@@]1(O)C[C@H](OC)[C@H]2C[C@@H]4[C@@H]1[C@H]2OC [DELSOLINE] | 19
